For one data set, the system named is recombinant human CYPs. Briefly: Oxidation of FLC by a panel of human recombinant CYP isozymes. In kind it is in vitro ADME. The conditions noted are these: 50 nM recombinant human CYPs, 60 min.
For data set [1], the system named is glutathione S-transferase (GST).
Data set [2] is described as follows: Quantification of FLC in mouse serum after single oral administration. The class given is in vivo. As to conditions: mice.
Data set [3] is described as follows: 24-h excretion of unchanged FLC in mouse urine, feces and bile. The class given is in vivo. The conditions noted are these: mice, oral, 0-24 h.
For data set [4], the system named is microsomal GST in human liver microsomes (HLM). As to the kind of experiment: Kinetic analysis of GSH conjugation. The class given is in vitro ADME.
The subject of data set [5] is microsomal GST in mouse liver microsomes (MLM). Briefly: Kinetic analysis of GSH conjugation. In kind it is in vitro ADME.
Data set [6] deals with cytosolic GST in human liver cytosols (HLC). Briefly: Kinetic analysis of GSH conjugation. In kind it is in vitro ADME. The conditions noted are these: FLC-SG formation, Michaelis-Menten.
Data set [7] concerns cytosolic GST in mouse liver cytosols (MLC). As to the kind of experiment: Kinetic analysis of GSH conjugation. The class given is in vitro ADME. As to conditions: FLC-SG formation, Michaelis-Menten.
The subject of the next data set is mice. Briefly: Toxicity of FLC in mice fed diet containing 0.5% FLC for 10 days. In kind it is in vivo. The conditions noted are these: diet containing 0.5% FLC vs control diet.
For data set [8] the following is noted: rats and rabbits; cited from earlier work.
The test system of data set [9] is Chinese Hamster Ovary K1 (CHO-K1) cells. As to conditions: cited from earlier work.
A further data set has as its system rats. The conditions noted are these: 45 and 90 days of dosing and last recovery day; cited from earlier work.
The subject of data set [10] is Human liver microsomes (HLM). Briefly: Human liver microsome incubation of FLC. The conditions noted are these: 60 min. (In general: Liver microsomes are a subcellular fraction often used to study metabolism.)
[11] abbreviates: HLM, FLC-SG formation, Michaelis-Menten.
Setting [12] is: MLM, FLC-SG formation, Michaelis-Menten.

Data on five compounds can be found in publication PMC6169518 (Environmental science & technology, 2016).

Several values for one entry are separate records, joined by “and”; a condition that tells them apart may be missing. Equal entries are not always repeated.

As to `O=C1C(Cl)C(CO)CN1c1cccc(C(F)(F)F)c1` (stereo not shown) [M3], the “CYP isozymes catalysing formation of the metabolite from FLC” value (from here on “CYP isozymes catalysing formation”) in the data set with recombinant human CYPs was “CYP1A1, 1A2, 2C8, 2C9, 2E1, and 3A4”.
For `N[C@@H](CCC(=O)N[C@@H](CSC1C(=O)N(c2cccc(C(F)(F)F)c2)CC1CCl)C(=O)NCC(=O)O)C(=O)O` (stereo partly shown) [M13], the “M13 detected in buffer” value in data set [1] (buffer with GSH, without microsomes or cytosols) is given as “trace amount”. The “formation of M13 in microsomes relative to cytosols” value in data set [1] (microsomes vs cytosols, with GSH) was “more than 2 fold”.
Regarding `O=C1C(Cl)C(CCl)C(O)N1c1cccc(C(F)(F)F)c1` (stereo not shown) [M5–1], the “CYP isozymes catalysing formation” value in the data set on recombinant human CYPs was “CYP1A1, 1A2, and 3A4”.
As usually defined, the Km is the concentration of substrate that gives half-maximal velocity. Consider `O=C1C(Cl)C(CCl)CN1c1cccc(C(F)(F)F)c1` (racemic) [FLC, (3RS,4RS;3RS,4SR)-3-chloro-4-chloromethyl-1-(α,α,α-tri-fluoro-m-tolyl)-2-pyrrolidone], for which the “concentration of FLC in serum” value in [2] (high dose group (50 mg/kg oral), 4 h post-dose) turned out to be 8.02 ± 2.81 µM; in [2] (high dose group (50 mg/kg oral), 24 h post-dose), 0.285 ± 0.076 µM; in data set [2] (low dose group (5 mg/kg oral), 4 h post-dose), 0.941 ± 0.220 µM; in data set [2] (low dose group (5 mg/kg oral), 24 h post-dose) it was 0.053 ± 0.025 µM. The “24-h excretion of FLC in bile” value in data set [3] (bile) is recorded as “undetectable”. Also, the “24-h excretion rate of FLC in feces” value in data set [3] (feces) was 1.21−1.40%. Besides, the “maximum clearance (Vmax/Km) of GSH conjugation, HLM over HLC” value in [4] (HLM vs HLC) is “approximately 5.5 fold”. Moreover, the results for the Km in [4] (setting [11]), in [5] (setting [12]) and in [6] were 374 µM, 367 µM and 148 µM, respectively. Further, the Vmax in [4] (setting [11]) was 5.63 pmol·min^−1·mg protein^−1; in data set [5] (setting [12]) it was 9.5 pmol·min^−1·mg protein^−1 and 9.50 pmol·min^−1·mg protein^−1; in data set [6] it was 0.404 pmol·min^−1·mg protein^−1; in data set [7], 4.65 pmol·min^−1·mg protein^−1. For the same compound, the “maximum clearance (Vmax/Km) of GSH conjugation, MLM over MLC” value in [5] (MLM vs MLC) is reported as “approximately 11.2 fold”. Besides, the “Alanine transaminase (ALT)” value with mice is listed as “elevated significantly”. Besides, the triglycerides entry in the data set with mice (hepatic) is on record as “slightly increased”. The aqueous peroxide entry in the data set with mice (liver) is listed as “slightly increased”. For the same compound, the “excretion rate of unchanged FLC” value in data set [8] is “less than 1.5 % of the applied dose”. Moreover, the DNA damage result in data set [9] was “induce single-strand DNA breaks”. In addition, in the data set with rats, the histopathological observations entry is “testis and epididymis lesions were consistently observed”. For the same compound, the parent compound consumed entry in data set [10] (HLM supplemented with NADPH) is listed as “Approximately 30%”. Besides, the “more consumption of FLC” value in data set [10] (coincubation with GSH, NADPH and HLM) was determined as 40%.
For `O=C1C(Cl)C(CCl)C(O)N1c1cccc(C(F)(F)F)c1` (stereo not shown) [M5–2], in the data set on recombinant human CYPs, the “CYP isozymes catalysing formation” value was “CYP1A1, 1A2, and 3A4”.
